# Source: paper PMC5441875 (eLife, 2017)
# Values joined by “and” are separate entries in the source; they are usually repeats but may differ in a detail not shown here. Equal values may be shown once. Read-outs that look alike come from different tables or passages of the source.
# Columns and labels:
# [1] = test system: GluN1-P532PSAA/GluN2A receptors; details: PSAA-mutant; for τdeact,UV (example trace) / τdeact,BLUE (example trace): single example trace; for τdeact,BLUE (example trace): blue light
# Description: (§1) Receptor functionality and light-sensitivity were assessed in patch-clamp recordings of lifted whole cells 24–72 hr post transfection. Positively transfected cells were visualized by GFP-fluorescence. […] The osmolarity was 270–290 mOsm. The cells were continuously perfused with a Ringer solution containing (in mM): 140 NaCl, 2.8 KCl, 1 CaCl2, 0.01 DTPA, 10 HEPES and five sucrose (pH 7.3 with NaOH). The osmolarity was 290 mOsm. DTPA was added to prevent tonic inhibition of NMDARs by ambient zinc ([Paoletti et al., 1997]). Currents were recorded using an Axopatch 200B amplifier and a Digidata 1550A interface (Molecular Devices), sampled at 10–20 kHz, and low-pass filtered at 2–5 kHz. The cells were voltage-clamped at −60 mV. pClamp 10.5 (Molecular Devices) was used to acquire the data. All recordings were performed at room temperature.
# (§2) Agonists or other pharmacological substances were applied using a multi-barrel rapid solution exchanger system (RSC 200, Bio-Logic). […] The agonist deactivation kinetics were assessed by including the converse co-agonist to the control solution. For Mg^2+-DRCs, the concentration of DTPA, which has orders of magnitude higher affinity for Zn^2+ than Mg^2+ ([Paoletti et al., 1997]), was reduced to 1 µM to avoid excessive Mg^2+ chelation, while maintaining depletion of ambient zinc (estimated in the few hundreds of nM). Accordingly, Mg^2+ concentrations reported in the Mg^2+-DRC were not corrected and correspond to the nominal concentrations of added Mg^2+. MK-801 was applied at 1 μM to assure full inhibition of WT NMDAR-mediated currents. The positive allosteric modulator (PAM) GNE-6901 (obtained from Genentech, South San Francisco, USA) was used at a final concentration of 30 μM ([Hackos et al., 2016]).
# (§3) Computer-controlled light pulses during electrophysiological recordings were provided from sensitive high power LEDs (Prizmatix). The three following LEDs were used: Mic-LED-365 (UV, 200 mW), UHP-Mic-LED-460 (blue, 2W) and UHP-Mic-LED-520 (green, 900 mW). The LED port was directly coupled via a microscope adaptor to the fluorescence port of an inverted DIAPHOT 300 Nikon microscope. The output beams of the three Mic-LEDs were joined by a dichroic beam combiner module and the resulting light was applied to the center of the recording dish through a 10X objective (Leitz Wetzlar). The light intensity of all three LEDs was set to 100%, unless otherwise noted.
# The weighted deactivation time constants were calculated with: τw =( Af/(Af+As))*τf + (As /(Af + As))*τs.
# [2] = test system: GluN1-P532PSAA/GluN2A receptors; test: UV-induced photoinhibition of currents in the presence of ligands (glycine concentrations, competitive antagonists, PAM); format: cell-based, rat
# Description: as §1, §2, §3
# [3] = biological target: GluN1-P532PSAA/GluN2A receptors; details: PSAA-mutant
# Description: as §1, §2
# Computer-controlled light pulses during electrophysiological recordings were provided from sensitive high power LEDs (Prizmatix).
# [4] = biological target: T1, WT GluN1/GluN2A receptors (Rattus norvegicus, UniProt P35439+Q00959); test: Magnesium dose-response curves (Mg2+-DRCs), whole-cell patch-clamp; format: cell-based; set-up: expressed in transfected cells; host or cells: HEK-293 cells (ATCC), PEI transfection, pcDNA3-based vectors
# Description: as §1, §2
# (§4) Computer-controlled light pulses during electrophysiological recordings were provided from sensitive high power LEDs (Prizmatix). […] The LED port was directly coupled via a microscope adaptor to the fluorescence port of an inverted DIAPHOT 300 Nikon microscope. […]
# [5] = test system: GluN1-Y647PSAA/GluN2A receptors; test: as above; format: cell-based, rat; details: Y647PSAA mutant
# Description: as §1, §2, §3
# (§5) Current traces obtained in electrophysiological recordings were transferred to Igor Pro (version 6.3) or Clampfit (version 10.5) for display and analysis. The kinetics of photoinactivation and photopotentiation were obtained by fitting currents with a single exponential function as follows: Y = A*exp(-t/τ) + C, with A as the initial current amplitude, Tau (τ) the decay time constant, and C the steady-state level. The inhibition by MK-801 was also fit with a monoexponential function. […] Accordingly, and for comparative purposes, only single exponential fits were used when studying MK-801 inhibition. Agonist DRCs were fit with the following Hill equation: Irel = 1/(1 + (EC50 / [ago])^nH), with EC50 and the Hill coefficient (nH) as free parameters. For Mg^2+-DRCs the following equation was used: Irel = 100*(1-(a/(1+[IC50]/[Mg^2+)^nH,)), where a is the maximal current inhibition by Mg^2+. IC50, a, and the Hill coefficient (nH) were set as free parameters.
# [6] = test system: GluN1-F654PSAA/GluN2A receptors; test: as above; format: cell-based, rat; details: F654PSAA mutant
# Description: as §1, §2, §3, §5
# [7] = biological target: T1, WT GluN1/GluN2A receptors; test: Potentiation by the positive allosteric modulator GNE-6901, whole-cell patch-clamp; format: cell-based; set-up: expressed in transfected cells; host or cells: HEK-293 cells (ATCC), PEI transfection, pcDNA3-based vectors
# Description: as §1, §2, §4
# [8] = test system: GluN1-P532PSAA/GluN2A receptors; test: as above; format: cell-based, rat
# Description: as §1
# Agonists or other pharmacological substances were applied using a multi-barrel rapid solution exchanger system (RSC 200, Bio-Logic). […] The agonist deactivation kinetics were assessed by including the converse co-agonist to the control solution. […]
# as §4
# [9] = UV/Vis spectra of the free PSAA photoisomers; format: physicochemical; details: isopropanol, 5 min irradiation at 460 nm
# Description: The UV/Vis spectra of the free PSAA (100 μM) were measured using a UVIKON 922 spectrophotometer (Kontron Instruments) in 1 x 1 × 4 cm quartz cuvettes. The spectra were measured at two different conditions: (i) with PSAA in the extracellular (Ringer) solution to be as close as possible to the recording conditions, and (ii) in isopropanol to mimic a hydrophobic environment (since PSAA is buried in the protein) ([Ye et al., 2009]). To induce the different photoisomers, the dissolved PSAA was directly irradiated in the cuvette at 365 nm (30 mW), 460 nm (241 mW), and 525 nm (35 mW) using a Cool LED pE-4000 illumination system. The UV spectra of the pure trans-isomer were recorded upon storage in the dark.
# [10] = biological target: T1, WT GluN1/GluN2A receptors; test: MK-801 open channel block (kinetics and extent), whole-cell patch-clamp; format: cell-based; set-up: expressed in transfected cells; host or cells: HEK-293 cells (ATCC), PEI transfection, pcDNA3-based vectors; details: 1 µM MK-801, WT
# Description: as §1, §2, §3, §5
# [11] = test system: GluN1-P532PSAA/GluN2A receptors; test: MK-801 open channel block kinetics, whole-cell patch-clamp; format: cell-based, rat
# Description: as §1, §2, §3, §5
# [12] = test system: GluN1-Y647PSAA/GluN2A receptors; test: MK-801 open channel block (kinetics and extent), whole-cell patch-clamp; format: cell-based, rat; details: 1 µM MK-801, Y647PSAA mutant
# Description: as §1, §2, §3, §5
# [13] = test system: GluN1-F654PSAA/GluN2A receptors; test: as above; format: cell-based, rat
# Description: as §1, §2, §3, §5
# [14] = read-out: EC50,BLUE, blue light (460 nm)
# [15] = read-out: EC50,DARK, dark, 100 μM of the respective co-agonist
# [16] = read-out: EC50,UV, UV light (365 nm)
# [17] = blue light, read-out: IC50 BLUE
# [18] = 1 µM MK-801, F654PSAA mutant, UV
# [19] = 1 µM MK-801, F654PSAA mutant, dark
# T1 sequence (Q00959 23-1464, other chains not shown): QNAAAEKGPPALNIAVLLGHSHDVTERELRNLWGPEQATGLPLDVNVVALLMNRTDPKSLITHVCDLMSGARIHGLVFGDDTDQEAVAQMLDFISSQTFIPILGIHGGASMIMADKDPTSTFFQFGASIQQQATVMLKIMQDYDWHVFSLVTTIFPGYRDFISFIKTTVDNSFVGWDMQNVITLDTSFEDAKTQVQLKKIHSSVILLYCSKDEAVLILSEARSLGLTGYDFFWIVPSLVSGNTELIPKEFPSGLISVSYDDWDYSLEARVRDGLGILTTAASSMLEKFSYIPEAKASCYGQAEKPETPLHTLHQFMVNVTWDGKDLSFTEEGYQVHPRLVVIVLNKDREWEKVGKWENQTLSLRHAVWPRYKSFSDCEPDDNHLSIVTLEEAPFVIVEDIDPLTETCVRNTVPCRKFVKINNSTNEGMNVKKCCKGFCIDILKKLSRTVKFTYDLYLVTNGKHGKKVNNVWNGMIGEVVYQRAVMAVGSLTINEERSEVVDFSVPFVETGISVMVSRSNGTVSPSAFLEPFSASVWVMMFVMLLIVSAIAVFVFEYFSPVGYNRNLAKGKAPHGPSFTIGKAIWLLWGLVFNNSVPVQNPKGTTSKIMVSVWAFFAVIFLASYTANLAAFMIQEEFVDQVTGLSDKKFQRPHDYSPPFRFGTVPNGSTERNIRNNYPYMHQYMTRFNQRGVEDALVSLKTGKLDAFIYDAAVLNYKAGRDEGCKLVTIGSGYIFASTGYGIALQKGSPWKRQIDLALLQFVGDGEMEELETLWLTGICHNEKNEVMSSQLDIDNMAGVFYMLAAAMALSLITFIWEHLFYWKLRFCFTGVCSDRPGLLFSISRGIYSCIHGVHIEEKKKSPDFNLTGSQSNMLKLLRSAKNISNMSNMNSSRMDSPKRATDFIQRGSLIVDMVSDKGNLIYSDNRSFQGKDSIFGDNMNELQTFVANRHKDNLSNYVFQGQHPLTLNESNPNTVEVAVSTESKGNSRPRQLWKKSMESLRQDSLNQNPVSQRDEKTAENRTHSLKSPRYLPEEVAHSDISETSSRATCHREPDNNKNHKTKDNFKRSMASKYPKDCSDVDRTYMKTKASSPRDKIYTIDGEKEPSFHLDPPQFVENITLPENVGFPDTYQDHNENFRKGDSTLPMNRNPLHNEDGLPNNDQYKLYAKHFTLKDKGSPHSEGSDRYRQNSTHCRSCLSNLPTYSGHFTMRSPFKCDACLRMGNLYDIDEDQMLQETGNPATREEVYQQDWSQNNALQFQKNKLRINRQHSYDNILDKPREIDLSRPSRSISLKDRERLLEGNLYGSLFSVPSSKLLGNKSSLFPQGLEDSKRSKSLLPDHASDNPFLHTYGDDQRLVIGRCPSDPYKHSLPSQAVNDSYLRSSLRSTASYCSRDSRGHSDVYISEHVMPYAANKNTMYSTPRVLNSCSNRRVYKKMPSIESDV
compound,measurement,setting,value
NCC(=O)O [glycine],"mean weighted deactivation time constant τdeact,UV",[1]; UV,81 ± 4 ms
same,"τdeact,UV (example trace)",[1]; UV,75.4 ms
same,"τdeact,BLUE (example trace)",[1],131.3 ms
same,"mean weighted deactivation time constant τdeact,DARK",[1],111 ± 9 ms
same,mean photoinhibition degree Inh1,[2]; 1 μM glycine,~95%
same,mean photoinhibition degree Inh10,[2]; 10 μM glycine,76.1 ± 2%
same,mean photoinhibition degree Inh100,[2]; 100 μM glycine,49.9 ± 2.5%
same,mean photoinhibition degree Inh1000,[2]; 1000 μM glycine,33.5 ± 2%
same,EC50,[3]; [14],1.5 µM
same,EC50,[3]; [15],1.5 µM
same,EC50,[3]; [16],10.5 µM
N[C@@H](CCC(=O)O)C(=O)O [glutamate],"τdeact,UV (example trace)",[1]; UV,77.7 ms
same,"τdeact,BLUE (example trace)",[1],79.2 ms
same,"mean weighted deactivation time constant τdeact,DARK",[1],113 ± 36 ms
same,EC50,[3]; [14],13.3 µM
same,EC50,[3]; [15],14.6 µM
same,EC50,[3]; [16],17.1 µM
[Mg+2] [Mg^2+],IC50,"[4]; UV light, read-out: IC50 UV",35.8 µM
same,IC50,[4]; [17],32.6 µM
same,IC50,"[4]; dark, nominal Mg2+ concentrations, read-out: IC50 DARK",34.6 µM
same,IC50,"[5]; UV light, read-out: IC50,UV",41.5 µM
same,IC50,"[5]; blue light, read-out: IC50,BLUE",102 µM
same,fold increase in IC50 under dark or blue light,[5]; dark or blue vs UV,2.5 fold
same,IC50,"[5]; dark, read-out: IC50,DARK",103 µM
same,IC50,"[6]; UV light, read-out: IC50 UV",33.3 µM
same,IC50,[6]; [17],34.3 µM
same,IC50,"[6]; dark, read-out: IC50 DARK",30 µM
Cc1sc2nc(COc3ccc(F)cc3)cc(=O)n2c1[C@@H]1C[C@H]1CO [GNE-6901],mean fold-potentiation by PAM,"[7]; GNE-6901 30 µM, WT",2.3 ± 0.3 fold
same,fold potentiation (example trace),"[7]; GNE-6901 30 µM, WT, example trace",2.3 fold
same,effect of PAM application,[7]; WT receptors,strongly potentiated
same,mean fold-potentiation by PAM,"[8]; GNE-6901 30 µM, PSAA mutant, cis and trans pooled",0.9 ± 0.04 fold
same,effect of PAM application,[8]; GluN1-P532PSAA mutant receptors,entirely unaffected
C=Cc1cccc(/N=N/c2ccc(C[C@H](N)C(=O)O)cc2)c1 [PSAA],cis/trans ratio,[9],74%
C[C@]12N[C@H](Cc3ccccc31)c1ccccc12 [MK-801],"mean extent of block produced by MK-801, BlockUV",[10]; UV,98 ± 1%
same,time constant of MK-801 inhibition (example trace),[10]; UV,700 ms
same,single-exponential time constant of MK-801 inhibition τUV,"[10]; UV, mean",620 ± 50 ms
same,single-exponential time constant of MK-801 inhibition τBLUE,"[10]; blue, mean",610 ± 90 ms
same,"mean extent of block produced by MK-801, BlockDARK",[10]; dark,97 ± 1%
same,time constant of MK-801 inhibition (example trace),[10]; dark,600 ms
same,single-exponential time constant of MK-801 inhibition τDARK,"[10]; dark, mean",690 ± 140 ms
same,time constant of MK-801 inhibition τUV (example trace),"[11]; 1 µM MK-801, P532PSAA mutant, UV, example",3200 ms
same,single-exponential time constant of MK-801 inhibition τUV,"[11]; 1 µM MK-801, P532PSAA mutant, UV, mean",1820 ± 290 ms
same,time constant of MK-801 inhibition τDARK (example trace),"[11]; 1 µM MK-801, P532PSAA mutant, dark, example",470 ms
same,single-exponential time constant of MK-801 inhibition τDARK,"[11]; 1 µM MK-801, P532PSAA mutant, dark, mean",940 ± 160 ms
same,fold slower MK-801 blocking kinetics,[11]; P532PSAA mutant in dark state vs WT,~ 1.3 fold
same,fold slower MK-801 inhibition rates,[11]; P532PSAA mutant under UV exposure,~ 2 fold
same,"mean extent of block produced by MK-801, BlockUV",[12]; UV,86 ± 3% and > 85%
same,time constant of MK-801 inhibition (example trace),[12]; UV,3300 ms
same,single-exponential time constant of MK-801 inhibition τUV,"[12]; UV, mean",4150 ± 910 ms
same,"mean extent of block produced by MK-801, BlockDARK",[12]; dark (trans),69 ± 5% and 69%
same,time constant of MK-801 inhibition (example trace),[12]; dark,4400 ms
same,single-exponential time constant of MK-801 inhibition τDARK,"[12]; dark, mean",5070 ± 580 ms
same,"mean extent of block produced by MK-801, BlockUV",[13]; [18],97 ± 1%
same,time constant of MK-801 inhibition (example trace),[13]; [18],1000 ms
same,single-exponential time constant of MK-801 inhibition τUV,"[13]; 1 µM MK-801, F654PSAA mutant, UV, mean",730 ± 70 ms
same,"mean extent of block produced by MK-801, BlockDARK",[13]; [19],90 ± 3%
same,time constant of MK-801 inhibition (example trace),[13]; [19],3970 ms
same,single-exponential time constant of MK-801 inhibition τDARK,"[13]; 1 µM MK-801, F654PSAA mutant, dark, mean",3070 ± 560 ms
same,degree of MK-801 block,"[13]; F654PSAA receptors, across light conditions",≥ 90%
